From patent publication US10660967B2, “Curcumin conjugates and methods of use thereof” (priority 2016, dated 2020)
Read-outs that look alike come from different tables or passages of the source.

How the values were obtained:
[1] = tested on: PHA-stimulated splenocytes; assay: Proliferative response of PHA-stimulated splenocytes (MTT assay); format: cell-based; conditions: PHA 5 μg/ml, 72 hr; compounds at 5 μM (method says 10 μM); ratio of O.D. versus vehicle control
Procedure, shortened: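 Readout was MTT absorbance (570 nm, reference 690 nm) after 72 h culture at 37° C. Splenocytes at 1×10^6 cells/well received test compound (10 μM final) alone or plus PHA 5 μg/ml as T-cell mitogen. Values are OD ratios of compound over vehicle control (stimulation index).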

[2] = tested on: lipopolysaccharide-stimulated peritoneal macrophages; assay: Production of nitric oxide by lipopolysaccharide-stimulated peritoneal macrophages (Greiss reagent); format: cell-based; parameters: Potency (%): % inhibition of nitric oxide production relative to lipopolysaccharide-stimulated macrophages: concentration or dose not given beside the values; conditions: LPS-stimulated peritoneal macrophages; for Nitric oxide (nitrite) concentration, μM (average ± SD): 24 h, nitrite by Greiss reagent
Procedure, shortened: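 NO output was quantified as accumulated nitrite, reacting supernatant with Greiss reagent (sulfanilamide/α-naphthylamine) and reading at 532 nm. Beforehand, cells had been incubated 24 h at 37° C. in nitrite-free, 0.1% BSA medium with 0.5–10 ng/ml LPS, with or without catecholamines at […].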

[3] = tested on: Salmonella typhi ATCC19430; assay: Antimicrobial MIC, agar dilution; format: cell-based; conditions: Salmonella enterica, read-out: Minimum inhibitory concentration (MIC)
[4] = tested on: HCT116 (colon) carcinoma cell line; assay: Anti-tumor properties, MTT; format: cell-based; conditions: Homo sapiens, HCT-116; read-out: IC50 (μM) HCT116 (colon)
Procedure, shortened: (§1)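 Cells seeded at 10×10^3 per well for 24 h, then exposed to compound in serum-free medium (final up to 100 μM, 0.5% DMSO vehicle) for 72 h in triplicate. Viability by MTT reduction (4 h, SDS solubilised), absorbance 595 nm/ref 620 nm; IC50 from survival curves.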

[5] = tested on: HepG2 (hepatocellular) carcinoma cell line; assay: Anti-tumor properties, MTT; format: cell-based; conditions: Homo sapiens, HepG2; read-out: IC50 (μM) HepG2 (liver)
Procedure, shortened: as §1

[6] = tested on: MCF7 (breast) carcinoma cell line; assay: Anti-tumor properties, MTT; format: cell-based; conditions: Homo sapiens, MCF7; read-out: IC50 (μM) MCF7 (breast)
Procedure, shortened: as §1

[7] = tested on: A-549 (lung) carcinoma cell line; assay: Anti-tumor properties, MTT; format: cell-based; conditions: Homo sapiens, A549
[8] = tested on: PC3 (prostate) carcinoma cell line; assay: Anti-tumor properties, MTT; format: cell-based; conditions: Homo sapiens
[9] = tested on: Staphylococcus aureus ATCC25923; assay: Antimicrobial MIC, agar dilution
[10] = tested on: Streptococcus pyogenes ATCC19615; assay: Antimicrobial MIC, agar dilution
[11] = tested on: Pseudomonas aeruginosa ATCC27853; assay: Antimicrobial MIC, agar dilution
[12] = tested on: Candida albicans (local isolate); assay: Antimicrobial MIC, agar dilution; conditions: Candida albicans, read-out: Minimum inhibitory concentration (MIC)
[13] = ATCC25923, 18 h, read-out: Minimum inhibitory concentration (MIC)
[14] = ATCC25923, read-out: Minimum inhibitory concentration (MIC)
[15] = ATCC19615, 18 h, read-out: Minimum inhibitory concentration (MIC)
[16] = ATCC19615, read-out: Minimum inhibitory concentration (MIC)
[17] = ATCC27853, 18 h, read-out: Minimum inhibitory concentration (MIC)
[18] = ATCC27853, read-out: Minimum inhibitory concentration (MIC)

| Compound | Stimulation Index (average ± SD) [1] | Potency (%): % inhibition of nitric oxide production relative to lipopolysaccharide-stimulated macrophages [2] | Nitric oxide (nitrite) concentration, μM (average ± SD) [2] | MIC ([3]; 18 h) | MIC [3] | IC50 [4] | IC50 [5] | IC50 [6] | IC50 [7] | IC50 [8] | MIC [9, 13] | MIC [9, 14] | MIC [10, 15] | MIC [10, 16] | MIC [11, 17] | MIC [11, 18] | MIC ([12]; 18 h) | MIC [12] |
| --- | --- | --- | --- | --- | --- | --- | --- | --- | --- | --- | --- | --- | --- | --- | --- | --- | --- | --- |
| COc1cc(/C=C/C(=O)CC(=O)/C=C/c2ccc(OC(=O)[C@@H](NC(=O)OC(C)(C)C)C(C)C)c(OC)c2)ccc1OC(=O)[C@@H](NC(=O)OC(C)(C)C)C(C)C [Boc-L-Val-Cur, ((1E,6E)-3,5-dioxohepta-1,6-diene-1,7-diyl)bis(2-methoxy-4,1-phenylene) (2S,2′S)-bis(2-((tert-butoxycarbonyl)amino)-3-methylbutanoate)] | 1.84 ± 0.06 | 29.35% | 19.29 ± 0.39 µM | 0.25 µg/mL | 0.326 µM | > 100 µM | > 100 µM | ≥ 100 µM | > 100 µM | > 100 µM | 0.25 µg/mL | 0.326 µM | 2 µg/mL | 2.61 µM | 2 µg/mL | 2.61 µM | 1 µg/mL | 1.3 µM |
| COc1cc(/C=C/C(=O)CC(=O)/C=C/c2ccc(OC(=O)CCNC(=O)OC(C)(C)C)c(OC)c2)ccc1OC(=O)CCNC(=O)OC(C)(C)C [Boc-β-Ala-Cur, ((1E,6E)-3,5-dioxohepta-1,6-diene-1,7-diyl)bis(2-methoxy-4,1-phenylene) bis(3-((tert-butoxycarbonyl)amino)propanoate)] | 1.70 ± 0.24 | 32.81% | 18.35 ± 1.61 µM | 0.5 µg/mL | 0.703 µM | > 100 µM | > 100 µM | 13.2 µM | > 100 µM | > 100 µM | 0.25 µg/mL | 0.352 µM | 0.25 µg/mL | 0.352 µM | 0.25 µg/mL | 0.352 µM | 0.5 µg/mL | 0.703 µM |
| COc1cc(/C=C/C(=O)CC(=O)/C=C/c2ccc(OC(=O)[C@H](C)N)c(OC)c2)ccc1OC(=O)[C@H](C)N.Cl.Cl [HCl-L-Ala-Cur, (2S,2′S)-1,1′-((((1E,6E)-3,5-dioxohepta-1,6-diene-1,7-diyl)bis(2-methoxy-4,1-phenylene))bis(oxy))bis(1-oxopropan-2-aminium) chloride] | 1.14 ± 0.18 | 46.24% | 14.68 ± 1.20 µM | 0.5 µg/mL | 0.857 µM | 38.8 µM | 33.8 µM | 10.7 µM | 21.7 µM | 31.5 µM | 0.5 µg/mL | 0.857 µM | 0.5 µg/mL | 0.857 µM | 0.25 µg/mL | 0.428 µM | 0.5 µg/mL | 0.857 µM |
| COc1cc(/C=C/C(=O)CC(=O)/C=C/c2ccc(OC(=O)[C@@H](N)CCC(N)=O)c(OC)c2)ccc1OC(=O)[C@@H](N)CCC(N)=O.Cl.Cl [HCl-L-Gln-Cur, (2S,2′S)-1,1′-((((1E,6E)-3,5-dioxohepta-1,6-diene-1,7-diyl)bis(2-methoxy-4,1-phenylene))bis(oxy))bis(5-amino-1,5-dioxopentan-2-aminium) chloride] | 2.22 ± 0.20 | 20.35% | 21.75 ± 1.31 µM | 0.125 µg/mL | 0.179 µM | 41 µM | 39.1 µM | 9.15 µM | 21.1 µM | 34.4 µM | 0.25 µg/mL | 0.358 µM | 0.5 µg/mL | 0.717 µM | 0.5 µg/mL | 0.717 µM | 0.125 µg/mL | 0.179 µM |
| CC[C@H](C)[C@H](N)C(=O)Oc1ccc(/C=C/C(=O)CC(=O)/C=C/c2ccc(OC(=O)[C@@H](N)[C@@H](C)CC)c(OC)c2)cc1OC.Cl.Cl [HCl-L-Ile-Cur, (2S,2′S,3S,3′S)-1,1′-((((1E,6E)-3,5-dioxohepta-1,6-diene-1,7-diyl)bis(2-methoxy-4,1-phenylene))bis(oxy))bis(3-methyl-1-oxopentan-2-aminium) chloride] | 1.59 ± 0.17 | 35.45% | 17.63 ± 1.14 µM | 0.125 µg/mL | 0.187 µM | 36.7 µM | 38.9 µM | 10.2 µM | 20.9 µM | 34.4 µM | 0.25 µg/mL | 0.374 µM | 0.5 µg/mL | 0.749 µM | 0.25 µg/mL | 0.374 µM | 0.125 µg/mL | 0.187 µM |
| COc1cc(/C=C/C(=O)CC(=O)/C=C/c2ccc(OC(=O)[C@@H](N)Cc3ccccc3)c(OC)c2)ccc1OC(=O)[C@@H](N)Cc1ccccc1.Cl.Cl [HCl-L-Phe-Cur, (2S,2′S)-1,1′-((((1E,6E)-3,5-dioxohepta-1,6-diene-1,7-diyl)bis(2-methoxy-4,1-phenylene))bis(oxy))bis(1-oxo-3-phenylpropan-2-aminium) chloride] | 1.41 ± 0.31 | 39.74% | 16.46 ± 2.05 µM | 0.125 µg/mL | 0.17 µM | 65.6 µM | 56.2 µM | 11.5 µM | 33.5 µM | 74.4 µM | 0.25 µg/mL | 0.34 µM | 0.5 µg/mL | 0.68 µM | 0.5 µg/mL | 0.68 µM | 0.5 µg/mL | 0.68 µM |
| COc1cc(/C=C/C(=O)CC(=O)/C=C/c2ccc(OC(=O)[C@@H](N)C(C)C)c(OC)c2)ccc1OC(=O)[C@@H](N)C(C)C.Cl.Cl [HCl-L-Val-Cur, (2S,2′S)-1,1′-((((1E,6E)-3,5-dioxohepta-1,6-diene-1,7-diyl)bis(2-methoxy-4,1-phenylene))bis(oxy))bis(3-methyl-1-oxobutan-2-aminium) chloride] | 2.05 ± 0.15 | 24.37% | 20.65 ± 0.99 µM | 0.125 µg/mL | 0.195 µM | 66.5 µM | 39.1 µM | 10.4 µM | 20.4 µM | 34.6 µM | 0.25 µg/mL | 0.391 µM | 0.125 µg/mL | 0.195 µM | 0.25 µg/mL | 0.391 µM | 0.125 µg/mL | 0.195 µM |
